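Briefly, cells in 96-well plates were exposed to five compound concentrations for 48 h, and endpoints were estimated by linear interpolation. TGI: total growth inhibition.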
Tests used:
Test in all cases: DTP human tumour cell line panel, 48 h
HOP-92 NSCLC = test system: HOP-92 NSCLC
OVCAR-8 ovarian = test system: OVCAR-8 ovarian
OVCAR-5 ovarian = test system: OVCAR-5 ovarian
SN12C renal = test system: SN12C renal
NCI-H23 lung = test system: NCI-H23 lung
BT-549 breast = test system: BT-549 breast
EKVX NSCLC = test system: EKVX NSCLC
HS 578T breast = test system: HS 578T breast
SK-MEL-2 melanoma = test system: SK-MEL-2 melanoma
SR leukemia = test system: SR leukemia

## CCOC(=O)Cc1nc2c(=O)[nH]cnc2n1C1OC(COC(C)=O)C(OC(C)=O)C1OC(C)=O (stereo not drawn)
HOP-92 NSCLC
  TGI: > 100 µM
OVCAR-8 ovarian
  TGI: > 100 µM
OVCAR-5 ovarian
  TGI: > 100 µM
SN12C renal
  TGI: > 100 µM
NCI-H23 lung
  TGI: > 100 µM
BT-549 breast
  TGI: > 100 µM
EKVX NSCLC
  TGI: > 100 µM
HS 578T breast
  TGI: > 100 µM
SK-MEL-2 melanoma
  TGI: > 100 µM

## C=C1C(=O)C[C@@]23CCC[C@@]12CC(O)C3 (stereo partly drawn)
HOP-92 NSCLC
  TGI: 42.1 µM
OVCAR-8 ovarian
  TGI: > 100 µM
OVCAR-5 ovarian
  TGI: > 54.2 µM
SN12C renal
  TGI: 38.1 µM
NCI-H23 lung
  TGI: 53.8 µM
EKVX NSCLC
  TGI: > 73.5 µM
SK-MEL-2 melanoma
  TGI: 73.2 µM

## CSc1nc(Br)nc2c1ncn2C1CC(Oc2ccc(C)cc2)C(COc2ccc(C)cc2)O1 (stereo not drawn)
HOP-92 NSCLC
  TGI: > 100 µM
OVCAR-8 ovarian
  TGI: > 100 µM
OVCAR-5 ovarian
  TGI: > 100 µM
SN12C renal
  TGI: > 100 µM
NCI-H23 lung
  TGI: > 100 µM
BT-549 breast
  TGI: > 100 µM
EKVX NSCLC
  TGI: > 100 µM
HS 578T breast
  TGI: 65.5 µM
SK-MEL-2 melanoma
  TGI: > 100 µM

## OCc1ccccc1OC1OC(CO)C(O)C(O)C1O (stereo not drawn)
HOP-92 NSCLC
  TGI: > 100 µM
OVCAR-8 ovarian
  TGI: > 100 µM
OVCAR-5 ovarian
  TGI: > 100 µM
SN12C renal
  TGI: > 100 µM
NCI-H23 lung
  TGI: > 100 µM
BT-549 breast
  TGI: > 100 µM
EKVX NSCLC
  TGI: > 100 µM
HS 578T breast
  TGI: > 100 µM
SK-MEL-2 melanoma
  TGI: > 100 µM

## COC1(OC)N=C(N)C2(C#N)/C(=N/N(C)C)CC(C)C12C#N (stereo not drawn)
SR leukemia
  TGI: > 100 µM
HOP-92 NSCLC
  TGI: > 100 µM
OVCAR-8 ovarian
  TGI: > 100 µM
OVCAR-5 ovarian
  TGI: > 100 µM
SN12C renal
  TGI: > 100 µM
NCI-H23 lung
  TGI: > 100 µM
EKVX NSCLC
  TGI: > 100 µM
HS 578T breast
  TGI: > 100 µM
SK-MEL-2 melanoma
  TGI: > 100 µM

## CC(=O)OCC1OC(n2c3c(c(-c4ccco4)c(C#N)c2=S)CCCC3)C(OC(C)=O)C(OC(C)=O)C1OC(C)=O (stereo not drawn)
SR leukemia
  TGI: > 31.6 µM
HOP-92 NSCLC
  TGI: 19.3 µM
OVCAR-8 ovarian
  TGI: > 100 µM
OVCAR-5 ovarian
  TGI: > 31.6 µM
SN12C renal
  TGI: > 31.6 µM
NCI-H23 lung
  TGI: > 31.6 µM
EKVX NSCLC
  TGI: 29.8 µM
HS 578T breast
  TGI: 85.6 µM
SK-MEL-2 melanoma
  TGI: > 31.6 µM

## COC(=O)CCc1ccc2c(c1)CC1(C2)Cc2ccc(CCC(=O)OC)cc2C1
SR leukemia
  TGI: 61.5 µM
HOP-92 NSCLC
  TGI: 99.7 µM
OVCAR-8 ovarian
  TGI: > 100 µM
OVCAR-5 ovarian
  TGI: > 100 µM
SN12C renal
  TGI: > 100 µM
NCI-H23 lung
  TGI: > 100 µM
EKVX NSCLC
  TGI: > 100 µM
HS 578T breast
  TGI: > 100 µM
SK-MEL-2 melanoma
  TGI: > 100 µM

## CN(C)CCNc1nc2ccccc2c2c1C(=O)c1ccccc1-2
HOP-92 NSCLC
  TGI: 3.07 µM
OVCAR-8 ovarian
  TGI: 2.26 µM
OVCAR-5 ovarian
  TGI: 5.25 µM
SN12C renal
  TGI: 0.45 µM
NCI-H23 lung
  TGI: 1.82 µM
BT-549 breast
  TGI: 3.14 µM
EKVX NSCLC
  TGI: 3.09 µM
HS 578T breast
  TGI: 24.3 µM
SK-MEL-2 melanoma
  TGI: 1.55 µM

## C=C1c2nc3ccccc3n2C=C(c2ccccc2)N1c1ccc(OC)cc1
SR leukemia
  TGI: > 100 µM
HOP-92 NSCLC
  TGI: > 100 µM
OVCAR-8 ovarian
  TGI: 55 µM
OVCAR-5 ovarian
  TGI: > 100 µM
SN12C renal
  TGI: > 100 µM
NCI-H23 lung
  TGI: 74.4 µM
BT-549 breast
  TGI: 38.3 µM
EKVX NSCLC
  TGI: > 100 µM
SK-MEL-2 melanoma
  TGI: > 100 µM

## COc1cc2cc3c4c(cc(OC)c(OC)c4c2cc1OC)CCN3C(=O)OCCBr
SR leukemia
  TGI: > 100 µM
HOP-92 NSCLC
  TGI: > 100 µM
OVCAR-8 ovarian
  TGI: > 100 µM
OVCAR-5 ovarian
  TGI: > 100 µM
SN12C renal
  TGI: > 100 µM
NCI-H23 lung
  TGI: > 100 µM
EKVX NSCLC
  TGI: > 100 µM
SK-MEL-2 melanoma
  TGI: > 100 µM

## COc1cc2c(c(OC)c1OC)-c1ccc(SC)c(=O)cc1[C@@H](NC(=O)c1ccc(C#N)cc1)CC2
SR leukemia
  TGI: > 100 µM
HOP-92 NSCLC
  TGI: 10.6 µM
OVCAR-8 ovarian
  TGI: 12.9 µM
SN12C renal
  TGI: > 77.8 µM
NCI-H23 lung
  TGI: < 0.01 µM
EKVX NSCLC
  TGI: > 100 µM
SK-MEL-2 melanoma
  TGI: 6.58 µM

## CCN(CC)c1ccc(C(=C2C=CC(=[N+](CC)CC)C=C2)c2ccccc2)cc1
SR leukemia
  TGI: 0.0791 µM
HOP-92 NSCLC
  TGI: 0.0971 µM
OVCAR-5 ovarian
  TGI: 0.342 µM
SN12C renal
  TGI: 0.0878 µM
NCI-H23 lung
  TGI: 0.0929 µM
EKVX NSCLC
  TGI: 0.581 µM
SK-MEL-2 melanoma
  TGI: 0.0889 µM

## COc1cc([C@@H]2c3cc4c(cc3[C@@H](Nc3ccc(Cl)cc3C(=O)c3ccccc3Cl)[C@H]3COC(=O)[C@H]23)OCO4)cc(OC)c1OC
SR leukemia
  TGI: 0.425 µM
OVCAR-8 ovarian
  TGI: > 36.2 µM
OVCAR-5 ovarian
  TGI: > 100 µM
SN12C renal
  TGI: > 100 µM
NCI-H23 lung
  TGI: > 53.8 µM
BT-549 breast
  TGI: > 100 µM
EKVX NSCLC
  TGI: > 100 µM
SK-MEL-2 melanoma
  TGI: > 100 µM

## O=C(Nc1ccccc1)N1N=C(c2ccccc2)C1c1ccccc1 (stereo not drawn)
HOP-92 NSCLC
  TGI: 91.9 µM
OVCAR-8 ovarian
  TGI: > 100 µM
OVCAR-5 ovarian
  TGI: > 100 µM
SN12C renal
  TGI: > 100 µM
NCI-H23 lung
  TGI: 72.1 µM
BT-549 breast
  TGI: 64.4 µM
EKVX NSCLC
  TGI: > 100 µM
HS 578T breast
  TGI: 60.7 µM

## COc1ccccc1OC/C(N=Cc1ccncc1)=N/NC(=O)c1ccncc1
HOP-92 NSCLC
  TGI: > 100 µM
OVCAR-8 ovarian
  TGI: > 100 µM
OVCAR-5 ovarian
  TGI: > 100 µM
SN12C renal
  TGI: > 100 µM
NCI-H23 lung
  TGI: > 100 µM
BT-549 breast
  TGI: > 100 µM
EKVX NSCLC
  TGI: > 100 µM
HS 578T breast
  TGI: > 100 µM
SK-MEL-2 melanoma
  TGI: > 100 µM

## COc1ccc(S(=O)(=O)Nc2ccc(-c3csc(N4C(=O)/C(=C/C=C\c5ccccc5)N=C4c4ccccc4)n3)cc2)cc1Cl
SR leukemia
  TGI: > 100 µM
HOP-92 NSCLC
  TGI: 41.1 µM
OVCAR-8 ovarian
  TGI: 88.4 µM
OVCAR-5 ovarian
  TGI: > 100 µM
SN12C renal
  TGI: > 100 µM
NCI-H23 lung
  TGI: 42.4 µM
HS 578T breast
  TGI: 85.5 µM
SK-MEL-2 melanoma
  TGI: 56.3 µM

## COC1(OC)/C(=C(\N)C=O)NC(C)(C)N1O
SR leukemia
  TGI: > 100 µM
HOP-92 NSCLC
  TGI: > 100 µM
OVCAR-8 ovarian
  TGI: > 100 µM
OVCAR-5 ovarian
  TGI: > 100 µM
SN12C renal
  TGI: > 100 µM
NCI-H23 lung
  TGI: > 100 µM
BT-549 breast
  TGI: > 100 µM
EKVX NSCLC
  TGI: > 100 µM
SK-MEL-2 melanoma
  TGI: > 100 µM

From PubChem BioAssay (NCI)
